Ends that are not written are not given here.
Experiments:
horse erythrocytes = experiment: Haemolytic test; type: cell-based; details: 32 μM, horse red blood cells, 37°C, 2 h, relative to 1% Triton X-100
Experimental: The haemolysis of Caeridins was tested on prepared defrinated horse red blood cells (TCS Biosciences Ltd., Buckingham, UK) by incubating equal volumes of peptide solutions with erythrocyte suspensions at 37°C for 2 H. Maximum haemolysis control was included by incubating equal volumes of 1% Triton X-100 (Sigma-Aldrich, St. Louis, MO, USA) with erythrocyte suspensions. Lysis of erythrocytes was detected by the measurement of supernatant absorbance at a wavelength of 550 nm using a Synergy HT plate reader (Biolise BioTek ELx808, Winooski, VT, USA). The level of haemolysis was as calculated as (3) Haemolysis %=A−A0/A1−A0×100%, where A represents the absorbance with peptide treatments, A0 represents the average absorbance in untreated erythrocytes, and A1 represents the average absorbance in the maximum haemolysis control (1% Triton X-100-treated).

[1] = system: human microvascular endothelial cell line HMEC-1; experiment: Membrane permeabilisation of HMEC-1 (LDH release); type: cell-based; details: 24 h; for LDH release from HMEC-1: relative to lysis buffer
Experimental: The membrane permeabilisation of the human microvascular endothelial cell line, HMEC-1, was evaluated using the Pierce LDH Cytotoxicity Assay Kit (Thermo Fisher Scientific, San Francisco, CA, USA). HMEC-1 cells were cultured in MCDB-131 medium (Life Technology, Paisley, UK) with 10% FBS, 10 ng/ml epidermal growth factor (EGF) (Life Technology, Paisley, UK), 10 mM L-glutamine (Life Technology, Paisley, UK), and 1% penicillin-streptomycin (Sigma-Aldrich, St. Louise, MO, USA), at 37°C under 5% CO2. Cells were seeded in a 96-well plate at 5000 cells per well and cultured overnight to 80% confluency. Then, the cells were treated with different peptide solutions of gradient concentrations from 10^−7 M to 10^−4 M for 24 h at 37°C, 5% CO2, and H2O-treated cells were made as the spontaneous LDH release control. Lysis buffer was added to cells and incubated for 45 min at 37°C, 5% CO2, to produce the lysis buffer-treated cells which were referred to as maximum LDH release control. Then 50 μl of each sample supernatant was transferred to a 96-well flat-bottom plate in triplicate wells, to which 50 μl of reaction mixture was added, incubated, and protected from light at room temperature for 30 min. After addition of 50 μl Stop Solution to each sample well and removal of bubbles present in sample wells, the absorbance at 490 nm and 680 nm was measured. The absorbance values at 680 nm were subtracted from the absorbance values at 490 nm before calculation of the level of LDH release (cytotoxicity). The level of LDH release was calculated as (2) LDH release %=L−L0/L1−L0×100%, where L refers to sample-treated LDH activity, L0 to spontaneous (H2O-treated) LDH activity, and L1 to maximum (lysis buffer-treated) LDH activity.
Data analysis was performed using one-way analysis of variance followed by Dunnett's multiple comparison tests with maximum LDH release control in GraphPad Prism (Version 6.0; GraphPad Software Inc., San Diego, CA, USA).

S. aureus NCTC10788 = experiment: Antimicrobial test (broth microdilution); type: cell-based, Staphylococcus aureus
Experimental: (§1) The antimicrobial activities were tested by the broth microdilution method and evaluated by the determination of MIC values against different tested microorganisms, the Gram-positive bacteria, S. aureus (NCTC 10788), E. faecalis (NCTC12697), and MRSA (NCTC 12493); the Gram-negative bacterium, E. coli (NCTC 10418); and the yeast, C. albicans (NCYC 1467). The microorganisms were cultured to their log phase in MHB and diluted to 5 × 10^5 CFU/ml then subsequently treated with peptide solutions of gradient concentrations. After incubation at 37°C overnight, the growth of microorganisms was detected at a wavelength of 550 nm using a Synergy HT plate reader (Biolise BioTek ELx808, Winooski, VT, USA). The MICs were determined as the lowest concentration of peptide where […].

rat ileum smooth muscle = experiment: Rat ileum smooth muscle test; details: 10^−11 to 10^−6 M
Experimental: (§2) Female Wistar rats (250–300 g) were euthanized by CO2 asphyxiation followed by cervical dislocation under appropriate Home Office (UK) animal licenses. Full urinary bladder and ileum were carefully removed from the abdomen, then placed in cold Kreb's solution (118 mM NaCl, 4.7 mM KCl, 25 mM NaHCO3, 1.15 mM NaH2PO4, 2.5 mM CaCl2, 1.1 mM MgCl2, and 5.6 mM glucose), equilibrated with a carbogen mixture (95% O2, 5% CO2). The prepared smooth muscles linked with transducers were placed in 2 ml capacity organ baths with Kreb's solution flowing through at 2 ml/min and maintained at 37°C with constant bubbling of carbogen gas mixture (95% O2, […]) and equilibrated for 1 h prior to analysis. Then the viability of these smooth muscle preparations was tested by 60 mM KCl. Caeridins were tested at sequential molar concentrations in the range from 10^−6 M to 10^−11 M. Dose-response curves were depicted for each Caeridin on individual smooth muscle preparations (n = 5). Changes in tension of the smooth muscle preparations were detected by pressure transducers connected to a PowerLab System (ADInstruments Pty Ltd.). Data were recorded and calculated to obtain the means of responses and standard error of means (SEM). The dose-response curve of each Caeridin was established using best-fit algorithms through the data analysis package provided by GraphPad Prism (Version 6.0; GraphPad Software Inc., San Diego, CA, USA), and the comparative EC50 value for each peptide was depicted.

E. faecalis NCTC12697 = experiment: Antimicrobial test (broth microdilution); type: cell-based, Enterococcus faecalis
Experimental: as §1

[2] = system: rat urinary bladder smooth muscle; experiment: Rat urinary bladder smooth muscle test; details: 10^−11 to 10^−6 M
Experimental: as §2

E. coli NCTC10418 = experiment: Antimicrobial test (broth microdilution); type: cell-based, Escherichia coli
Experimental: as §1

C. albicans NCYC1467 = experiment: Antimicrobial test (broth microdilution); type: cell-based, Candida albicans
Experimental: as §1

MRSA NCTC12493 = experiment: Antimicrobial test (broth microdilution); type: cell-based, methicillin-resistant S. aureus
Experimental: as §1

[3] = MHB, 5 × 10^5 CFU/ml, 37°C overnight, 550 nm

GLFDIVGKLLGGLGL-NH2 [Caeridin-a1]
haemolysis (horse erythrocytes): 18% | LDH release from HMEC-1 ([1]; 10 μM): approximately 10% | LDH release from HMEC-1 ([1]; 100 μM): about 50% | cytotoxicity to HMEC-1 cells ([1]; 100 μM, LDH release): significant cytotoxicity | MBC (S. aureus NCTC10788): 16 µM | MIC (S. aureus NCTC10788; [3]): 8 µM | smooth muscle activity (rat ileum) (rat ileum smooth muscle): did not show any smooth muscle activities | MBC (E. faecalis NCTC12697): 64 µM | MIC (E. faecalis NCTC12697; [3]): 32 µM | smooth muscle activity (rat bladder) [2]: did not show any smooth muscle activities | MBC (E. coli NCTC10418): 64 µM | MIC (E. coli NCTC10418; [3]): 32 µM | MFC (C. albicans NCYC1467): 64 µM | MIC (C. albicans NCYC1467; [3]): 32 µM | MBC (MRSA NCTC12493): 32 µM | MIC (MRSA NCTC12493; [3]): 16 µM

Source: publication PMC6079455, “Discovery of Novel Caeridins from the Skin Secretion of the Australian White's Tree Frog, Litoria caerulea” (International Journal of Genomics, 2018)
